Data published in PubChem BioAssay (NCI).
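Grown in 96-well plates, cells were treated for 48 hours with each compound at five concentrations. Insufficient inhibition: endpoint recorded as highest concentration tested. GI50: concentration for 50% inhibition of growth. At the TGI there is no net growth.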

Experiments:
Experiment in all cases: inhibition of tumour cell growth, NCI panel, 48 h
[1] = system: LOX IMVI melanoma
[2] = system: UACC-257 melanoma
[3] = system: SF-268 CNS
[4] = system: HS 578T breast
[5] = system: SK-OV-3 ovarian
[6] = system: CAKI-1 renal
[7] = system: ACHN renal
[8] = system: SNB-19 CNS
[9] = system: SF-539 CNS
[10] = system: RXF 393 renal

Row | Structure (SMILES) | TGI [1] | TGI [2] | TGI [3] | TGI [4] | TGI [5] | TGI [6] | TGI [7] | TGI [8] | TGI [9] | TGI [10] | GI50 [1] | GI50 [2] | GI50 [3] | GI50 [5] | GI50 [6] | GI50 [10] | GI50 [7] | GI50 [8] | GI50 [9] | GI50 [4]
1 | O=C(CCCn1ccnc1[N+](=O)[O-])NCCn1cnc([N+](=O)[O-])c1 | > 100 µM | > 100 µM | > 100 µM | > 100 µM | > 100 µM | > 100 µM | > 100 µM | > 100 µM | > 100 µM |  |  |  |  |  |  |  |  |  |  | 
2 | COc1ccc(-c2cc(-c3ccccc3)c(C#N)c(=O)[nH]2)cc1 | > 100 µM | > 100 µM | > 100 µM |  | > 100 µM |  | > 100 µM | > 100 µM | > 100 µM | > 100 µM |  |  |  |  |  |  |  |  |  | 
3 | NNC(=O)CC(=O)Nc1ccccc1F | > 100 µM | > 100 µM | > 100 µM |  | > 100 µM | > 100 µM | > 100 µM | > 100 µM | > 100 µM | > 100 µM |  |  |  |  |  |  |  |  |  | 
4 | CCOC(=O)c1c(-c2[nH]c(C(=O)OCc3ccccc3)c(C)c2C(=O)OCC)[nH]c(C(=O)OCc2ccccc2)c1C | > 100 µM |  | > 100 µM |  | > 100 µM | > 100 µM | > 100 µM |  | > 100 µM | 86.2 µM |  |  |  |  |  |  |  |  |  | 
5 | CCOC(=O)CNC(SC)=C(C#N)C#N | > 100 µM | > 100 µM | > 100 µM |  | > 100 µM | > 100 µM |  | > 100 µM | > 100 µM | > 100 µM |  |  |  |  |  |  |  |  |  | 
6 | COc1cc2ccc(CC#N)cc2cc1OC | > 100 µM | > 100 µM | > 100 µM |  | > 100 µM | > 100 µM | > 100 µM | > 100 µM | > 100 µM | > 100 µM |  |  |  |  |  |  |  |  |  | 
7 | COc1ccc2oc(-c3ccncc3)cc(=O)c2c1 | > 100 µM | > 100 µM | > 100 µM |  |  | > 100 µM | > 100 µM | > 100 µM |  | > 100 µM |  |  |  |  |  |  |  |  |  | 
8 | CCC[CH2][Sn]1([CH2]CCC)[O]C(=O)C[S]1 | 3.09 µM | 3.27 µM | 4.83 µM |  | 14 µM | 3.47 µM | 3.04 µM | 2.5 µM | 3.43 µM | 1.88 µM | 1.46 µM | 1.4 µM | 1.67 µM | 4.63 µM | 0.759 µM | 0.573 µM | 1.64 µM | 1.22 µM | 1.64 µM | 
9 | C#CCOCn1cnc2ncnc(Cl)c21 | > 100 µM | > 100 µM | > 100 µM |  | > 100 µM | > 100 µM | > 100 µM | > 100 µM | > 100 µM |  |  |  |  |  |  |  |  |  |  | 
10 | CC(C)C(/C=C/c1ccccc1)=N\NC(=O)N/N=C(/C=C/c1ccccc1)C(C)C | > 100 µM | > 100 µM | > 100 µM |  | > 100 µM | 30.6 µM | > 100 µM | > 100 µM | > 100 µM |  |  |  |  |  |  |  |  |  |  | 
11 | COc1cc2c(cc1OCCCCCCNC(=O)c1cc3ccccc3[nH]1)N=CC1CCCN1C2=O (stereo unspecified) | > 100 µM | 51.2 µM | 26 µM | > 100 µM | > 100 µM |  | > 100 µM | > 100 µM | 33.4 µM | 54.6 µM | 31.8 µM | 14.4 µM | 6.8 µM | 64.8 µM |  | 35.3 µM | 35.2 µM | 63.1 µM | 17 µM | 30.6 µM
12 | CN(C)c1nc(N(C)C)nc(N(C)CN(C)c2nc(N(C)C)nc(N(C)C)n2)n1 | > 100 µM | > 100 µM | > 100 µM |  | > 100 µM | > 100 µM | > 100 µM | > 100 µM | > 100 µM | > 100 µM |  |  |  |  |  |  |  |  |  | 
13 | COc1cc2c(c3oc(-c4ccc5c(c4)OCO5)c(O)c(=O)c13)CCC(C)(C)O2 | > 100 µM |  |  |  | > 100 µM |  |  | > 100 µM | > 100 µM |  |  |  |  |  |  |  |  |  |  | 
14 | COC1=NN2C(OC)(c3ccccc3)c3c(-c4ccccc4)sc(-c4ccccc4)c3C2(c2ccccc2)S1 (stereo unspecified) | > 100 µM | > 100 µM | > 100 µM |  | > 100 µM | > 100 µM | > 100 µM | > 100 µM | > 100 µM |  |  |  |  |  |  |  |  |  |  | 
15 | O=C1c2c(c3c4ccccc4n4c3c3c2c2ccccc2n3C/C=C\C4)C(=O)N1Cc1ccccc1 | > 100 µM | > 100 µM |  |  | > 100 µM |  | > 100 µM | > 100 µM | > 100 µM | > 100 µM |  |  |  |  |  |  |  |  |  | 
16 | CSC(=S)N(C)NC(=O)c1cccc(C(=O)NN(C)C(=S)SC)n1 | > 100 µM | 56.9 µM | 43.9 µM |  |  |  | > 100 µM | > 100 µM | 70.1 µM | 74.4 µM |  |  |  |  |  |  |  |  |  | 
17 | COc1cc(C2[C@H]3C(=O)N(c4ccc(Cc5ccc(N6C(=O)[C@@H]7ON(c8ccccc8)C(c8cc(OC)c(OC)c(OC)c8)[C@@H]7C6=O)cc5)cc4)C(=O)[C@H]3ON2c2ccccc2)cc(OC)c1OC (stereo partly specified) | > 100 µM | > 100 µM | > 100 µM |  | > 100 µM | > 100 µM | > 100 µM | > 100 µM | > 100 µM | > 100 µM |  |  |  |  |  |  |  |  |  | 
18 | O=C1Cc2ccccc2N1/N=C\c1ccc(O)cc1 | > 100 µM | > 100 µM | > 100 µM |  | > 100 µM | > 100 µM | > 100 µM | > 100 µM | > 100 µM |  |  |  |  |  |  |  |  |  |  | 
19 | COc1cc(/C=C/C(=O)c2c(C)n([O-])c3cc(C)c(C)cc3[n+]2=O)cc(OC)c1OC | 29.2 µM | 48.8 µM | 32.3 µM | 54.2 µM | 91.9 µM | 29.6 µM | 27.9 µM | 39.9 µM | 31.6 µM |  | 11.9 µM | 16.7 µM | 12.5 µM | 32.4 µM | 10.8 µM |  | 13.9 µM | 16.9 µM | 14.9 µM | 19.9 µM
20 | CC1=C(C(=O)Nc2ccccc2C)C(c2ccc(N(C)C)cc2)C(C(=O)Nc2ccccc2C)=C(C)N1 | > 100 µM | > 100 µM | > 100 µM |  | > 100 µM |  | > 100 µM | > 100 µM | > 100 µM | > 100 µM |  |  |  |  |  |  |  |  |  | 
21 | CC1(C)CCc2cc3c(cc2O1)OC(C)(C)C1c2c(ccc4c2CCC(C)(C)O4)OC31 (stereo unspecified) | > 100 µM |  | > 100 µM |  | > 100 µM | > 100 µM | > 100 µM |  | > 100 µM |  |  |  |  |  |  |  |  |  |  | 
22 | C(=C1\CCC/C(=C/c2ccccc2)C1=NNc1ccccc1)/c1ccccc1 | > 100 µM | > 100 µM | > 100 µM |  | > 100 µM |  | > 100 µM | > 100 µM | > 100 µM | > 100 µM |  |  |  |  |  |  |  |  |  | 
